Source: paper PMC7835894 (Molecules, 2021)

How the values were obtained:
DU-145 = experiment: MTT antiproliferation assay; format: cell-based, human; details: for IC50: Homo sapiens, DU-145, MTT, 24 h, mean ± SEM; for SI (selectivity index): DU-145, SI = IC50 (WI-38)/IC50 (cancer cell line)
Method: (§1) The antiproliferation and cytotoxicity were assessed using 3-(4,5-dimethylthiazol-2-yl)-2,5-diphenyltetrazolium bromide (MTT, Serva) colorimetric assay. To investigate the antiproliferation, all cell lines were seeded at a density of 20,000 cells per well in 96-well plates and allowed to adhere overnight. […] These concentrations were prepared by diluting the stock solutions with serum-free culture media. The negative control cells were those treated with 0.1% DMSO solvent alone. The treated cells were handled in reduced light and maintained under standard culture growth conditions for 24 h. After the incubation period, MTT powder was prepared as a stock solution (5 mg/mL) and 20 μL of the MTT working reagent (final concentration 0.5 mg/mL) was added to each well. This was followed by incubation with MTT reagent for 4 h in a humidified atmosphere (37 °C, 5% CO2) with subsequent addition of 150 μL of DMSO solubilizing solvent and incubation for 20 min. The absorbance of solubilized violet formazan crystals was measured at 540 nm with Biotek 800 TS microplate reader. IC50 was calculated as the concentration of retinoid that produced 50% cell growth inhibition. For cytotoxicity assessment, WI-38 normal human fibroblast cells were used for the calculation of SI which is the ratio of IC50 retinoid (WI-38)/IC50 retinoid (cancer cell line).

MCF-7 = experiment: MTT antiproliferation assay; format: cell-based, human; details: for IC50: Homo sapiens, MCF7, MCF-7, MTT, 24 h, mean ± SEM; for SI (selectivity index): MCF-7, SI = IC50 (WI-38)/IC50 (cancer cell line)
Method: as §1

A549 = experiment: MTT antiproliferation assay; format: cell-based, human; details: for IC50: Homo sapiens, A549, MTT, 24 h, mean ± SEM; for SI (selectivity index): A549, SI = IC50 (WI-38)/IC50 (cancer cell line)
Method: as §1

PC3 = experiment: MTT antiproliferation assay; format: cell-based, human; details: for IC50: Homo sapiens, PC-3, PC3, MTT, 24 h, mean ± SEM; for SI (selectivity index): PC3, SI = IC50 (WI-38)/IC50 (cancer cell line)
Method: as §1

HepG2 = experiment: MTT antiproliferation assay; format: cell-based, human; details: for IC50: Homo sapiens, HepG2, MTT, 24 h, mean ± SEM; for SI (selectivity index): HepG2, SI = IC50 (WI-38)/IC50 (cancer cell line)
Method: as §1

HCT-116 = experiment: MTT antiproliferation assay; format: cell-based, human; details: for IC50: Homo sapiens, HCT-116, MTT, 24 h, mean ± SEM; for SI (selectivity index): HCT-116, SI = IC50 (WI-38)/IC50 (cancer cell line)
Method: as §1

MDA-MB 231 = experiment: MTT antiproliferation assay; format: cell-based, human; details: for IC50: Homo sapiens, MDA-MB 231, MTT, 24 h, mean ± SEM; for SI (selectivity index): MDA-MB 231, SI = IC50 (WI-38)/IC50 (cancer cell line)
Method: as §1

Caco-2 = experiment: MTT antiproliferation assay; format: cell-based, human; details: for IC50: Homo sapiens, Caco-2, MTT, 24 h, single agent, mean ± SEM; for SI (selectivity index): Caco-2, SI = IC50 (WI-38)/IC50 (cancer cell line)
Method: as §1

Huh7 = experiment: MTT antiproliferation assay; format: cell-based, human; details: for IC50: Homo sapiens, Huh-7, Huh7, MTT, 24 h, mean ± SEM; for SI (selectivity index): Huh7, SI = IC50 (WI-38)/IC50 (cancer cell line)
Method: as §1

Caco-2 cells [1] = experiment: Transwell cell invasion assay; format: cell-based, human; details: IC50 concentration; for inhibition in Caco-2 cell invasion compared to control: 24 h; for percentage inhibition of Caco-2 cell invasion: 48 h
Method: Caco-2 cell invasion was assessed using a QCM™ 24-well Colorimetric Cell Invasion Assay kit (Chemicon International, Temecula, CA, USA (Cat # ECM551)), according to the manufacturer’s instructions. Cells were starved of serum for 24 h. […] Inserts were further added into a 24-well plate containing 500 µL of 10% FBS-containing DMEM per well. After incubation for 24 or 48 h at 37 °C, remaining media was removed from the invasion chamber, and cells that had migrated to the other side of the membrane were stained with “Cell Stain” solution for 20 min at room temperature. Non-invaded cells were carefully removed from the upper side of the chamber with the help of cotton-tipped swabs. The stain of invaded cells was then extracted by 200 µL of extraction buffer in a clean well for 15 min at room temperature. Finally, 100 µL extracted stained solution was transferred into a 96-well plate and the optical density was measured at 490 nm with BioTek 800 TS microplate reader.

Caco-2 cells [2] = experiment: Cell cycle analysis (PI, flow cytometry); format: cell-based, human; details: Caco-2, IC50 of retinoid
Method: The cell cycle analysis was performed using flow cytometry (Beckman Coulter, Brea, CA, USA). […] After incubation, cells were harvested, fixed with 70% alcohol overnight, and stained with PI (50 µg/mL). DNA content was measured by Beckman Coulter Epics XL flow cytometer and G0/G1, S, and G2/M cells were gated as appropriate using Flowing Software 2.5.1 (Turko Bioimaging, Turku, Finland).

WI-38 = experiment: MTT antiproliferation/cytotoxicity assay; format: cell-based, human; details: for IC50: Homo sapiens, WI-38 normal cells, MTT, 24 h, mean ± SEM; for SI (selectivity index): WI-38, SI = IC50 (WI-38)/IC50 (cell line)
Method: as §1

Caco-2 cells [3] = experiment: Total antioxidant capacity (TAC/TAO); format: cell-based, human; details: Caco-2 cell lysate, IC50 concentration, 24 h; solvent control 32.6 ± 0.21
Method: Total antioxidant capacity was assayed spectrophotometrically using a Biodiagnostics® kit (Catalogue number TA 25 13, Biodiagnostics, Cairo, Egypt). […] The measurement of total antioxidants is based on treating the cell lysate with a known excess of H2O2 (50 µM). A certain amount of H2O2, equivalent to TAC, is eliminated leaving a residual amount of H2O2 that is quantified colorimetrically by the enzymatic conversion of 3, 5, dichloro-2-hydroxy benzene sulphonate to a colored product.

Vero = experiment: MTT antiproliferation/cytotoxicity assay; format: cell-based, African green monkey; details: Chlorocebus sabaeus, Vero normal cells, 24 h, mean ± SEM
Method: as §1

CC1=C(/C=C/C(C)=C/C=C/C(C)=C/C(=O)O)C(C)(C)CCC1 [ATRA, All-trans retinoic acid, reference compound]
IC50 (DU-145): > 100 µM
IC50 (MCF-7): 99 ± 0.26 µM
IC50 (A549): 84.7 ± 3.2 µM
IC50 (PC3): > 100 µM
IC50 (HepG2): 36.2 ± 1.9 µM
IC50 (HCT-116): > 100 µM
IC50 (MDA-MB 231): > 100 µM
IC50 (Caco-2): 58 ± 1 µM
IC50 (Huh7): > 100 µM
inhibition in Caco-2 cell invasion compared to control (Caco-2 cells [1]): 3.8%
percentage inhibition of Caco-2 cell invasion (Caco-2 cells [1]): 8.6%
% G0-G1 (Caco-2 cells [2]; 12 h treatment): 26.1 ± 3.6%
% G2M (Caco-2 cells [2]; 12 h treatment): 16.3 ± 1.9 %
% S (Caco-2 cells [2]; 12 h treatment): 57.5 ± 8.1 %
% SubG0-G1 (Caco-2 cells [2]; 12 h treatment): 0.14 ± 0.1%
%G2M/G0-G1 (Caco-2 cells [2]; 12 h treatment): 62.5 ± 8.8 %
% G0-G1 (Caco-2 cells [2]; 24 h treatment): 37.1 ± 4.5%
% G2M (Caco-2 cells [2]; 24 h treatment): 31.8 ± 4.8 %
% S (Caco-2 cells [2]; 24 h treatment): 29.5 ± 3.5%
% SubG0-G1 (Caco-2 cells [2]; 24 h treatment): 1.6 ± 0.19 %
%G2M/G0-G1 (Caco-2 cells [2]; 24 h treatment): 85.7 ± 16.3 %
IC50 (WI-38): 34 ± 1.1 µM
Total antioxidant activity (TAO) (Caco-2 cells [3]): 62.6 ± 0.15 µM/L
IC50 (Vero): > 100 µM

CC1(C)CCC(C)(C)c2cc(C#Cc3cccc(C(=O)O)c3)ccc21 [EC19, 3-(5,5,8,8-tetramethyl-5,6,7,8-tetrahydronaphthalen-2-ylethynyl) benzoic acid]
SI (selectivity index) (DU-145): 0.56 ± 0.001
IC50 (DU-145): 86.9 ± 2 µM
IC50 (MCF-7): 9.4 ± 0.13 µM
SI (selectivity index) (MCF-7): 5.18 ± 0.1
SI (selectivity index) (A549): <1
IC50 (A549): > 100 µM
IC50 (PC3): > 100 µM
SI (selectivity index) (PC3): <1
SI (selectivity index) (HepG2): 1.2 ± 0.002
IC50 (HepG2): 42.2 ± 0.92 µM
SI (selectivity index) (HCT-116): <1
IC50 (HCT-116): > 100 µM
IC50 (MDA-MB 231): > 100 µM
SI (selectivity index) (MDA-MB 231): <1
SI (selectivity index) (Caco-2): 4.5 ± 0.01
IC50 (Caco-2): 10.8 ± 0.1 µM
IC50 (Huh7): > 100 µM
SI (selectivity index) (Huh7): 0.14 ±0.01
inhibition in Caco-2 cell invasion compared to control (Caco-2 cells [1]): 7.2%
percentage inhibition of Caco-2 cell invasion (Caco-2 cells [1]): 17.2%
% G0-G1 (Caco-2 cells [2]; 12 h treatment): 39.1 ± 6.7%
% G2M (Caco-2 cells [2]; 12 h treatment): 9.1 ± 1.3 %
% S (Caco-2 cells [2]; 12 h treatment): 51.5 ± 7.2 %
% SubG0-G1 (Caco-2 cells [2]; 12 h treatment): 0.29 ± 0.1%
%G2M/G0-G1 (Caco-2 cells [2]; 12 h treatment): 23.4 ± 2.8 %
% G0-G1 (Caco-2 cells [2]; 24 h treatment): 29.0 ± 4.1%
% G2M (Caco-2 cells [2]; 24 h treatment): 22.5 ± 3.1 %
% S (Caco-2 cells [2]; 24 h treatment): 44.0 ± 8.2 %
% SubG0-G1 (Caco-2 cells [2]; 24 h treatment): 4.5 ± 0.6 %
%G2M/G0-G1 (Caco-2 cells [2]; 24 h treatment): 77.6 ± 10.8 %
IC50 (WI-38): 48.4 ± 1.2 µM
SI (selectivity index) (WI-38): 1
Total antioxidant activity (TAO) (Caco-2 cells [3]): 22.6 ± 0.024 µM/L
IC50 (Vero): > 100 µM

CC1(C)CCC(C)(C)c2cc(C#Cc3ccc(C(=O)O)cc3)ccc21 [EC23, 4-(5,5,8,8-tetramethyl-5,6,7,8-tetrahydronaphthalen-2-ylethynyl) benzoic acid]
SI (selectivity index) (DU-145): <1
IC50 (DU-145): > 100 µM
IC50 (MCF-7): 5.56 ± 0.01 µM
SI (selectivity index) (MCF-7): 1.44 ± 0.004
SI (selectivity index) (A549): <1
IC50 (A549): > 100 µM
IC50 (PC3): > 100 µM
SI (selectivity index) (PC3): <1
SI (selectivity index) (HepG2): 10.82 ± 1.0
IC50 (HepG2): 0.74 ± 0.001 µM
SI (selectivity index) (HCT-116): 0.18 ± 0.003
IC50 (HCT-116): 44.5 ± 1.1 µM
IC50 (MDA-MB 231): > 100 µM
SI (selectivity index) (MDA-MB 231): <1
SI (selectivity index) (Caco-2): 0.54 ±0.01
IC50 (Caco-2): 14.7 ± 0.73 µM
IC50 (Huh7): > 100 µM
SI (selectivity index) (Huh7): 0.02 ± 0.001
inhibition in Caco-2 cell invasion compared to control (Caco-2 cells [1]): 4.8%
percentage inhibition of Caco-2 cell invasion (Caco-2 cells [1]): 15.8%
% G0-G1 (Caco-2 cells [2]; 12 h treatment): 58.7 ± 8.2%
% G2M (Caco-2 cells [2]; 12 h treatment): 6.8 ± 0.8 %
% S (Caco-2 cells [2]; 12 h treatment): 34.0 ± 4.1%
% SubG0-G1 (Caco-2 cells [2]; 12 h treatment): 0.46 ± 0.1%
%G2M/G0-G1 (Caco-2 cells [2]; 12 h treatment): 11.6 ± 1.7 %
% G0-G1 (Caco-2 cells [2]; 24 h treatment): 32.7 ± 4.6%
% G2M (Caco-2 cells [2]; 24 h treatment): 15.8 ± 1.9 %
% S (Caco-2 cells [2]; 24 h treatment): 47.6 ± 9.1 %
% SubG0-G1 (Caco-2 cells [2]; 24 h treatment): 3.9 ± 0.43 %
%G2M/G0-G1 (Caco-2 cells [2]; 24 h treatment): 48.3 ± 6.8 %
IC50 (WI-38): 8.01 ± 0.13 µM
SI (selectivity index) (WI-38): 1
Total antioxidant activity (TAO) (Caco-2 cells [3]): 22.6 ± 0.024 µM/L
IC50 (Vero): 35.2 ± 1.02 µM
